≈ marks a conversion by molar mass, not a printed value. Read-outs that look alike come from different tables or passages of the source.
Tests used:
THP-1 cells [1] = assay: Fluorescence microscopy of nuclear morphology (propidium iodide and Hoechst staining); type: cell-based, human; details: THP-1, APC pretreatment, extract 25 μg/mL
Description: Fluorescence microscopy was used to observe cell nuclear morphology, followed by propidium iodide (50 µg/mL) and Hoechst 333342 (1 mg/mL) staining. THP-1 cells (1 × 10^5 cells/well) were treated with fresh media (control) and with 25, 50, or 100 µg/mL extract for 24 h; 400 µM doxorubicin was used as a positive control. Further, 10 microliters of the cell suspension was mixed with 90 µL of the dye, incubated in a water bath for 5 min at 37 °C, and wrapped in aluminum foil. The cells were examined under an Olympus IX53 fluorescence microscope (Olympus Corporation, Tokyo, Japan). The following formula was used to calculate the percentage of apoptotic cells.

THP-1 cells [2] = assay: Flow cytometric apoptosis, Annexin V-CF647/7-AAD; type: cell-based, human; details: THP-1, 24 h, apicidin pretreatment
Description: In 96-well plates, 8 × 10^4 cells were treated with 25, 50, and 100 µg/mL extract and 400 µM doxorubicin (positive control) for 24 and 48 h. The cells were washed with 1X PBS, and apoptotic cells were detected by staining with 100 µL of Annexin V-CF647 and 5 µL of the 7-AAD Apoptosis Annexin Red Kit (FCCH100108 FlowCellect, Millipore, Darmstadt, Germany). The cells were incubated at room temperature for 15 min in the dark and analyzed on a Guava Millipore flow cytometer (Merck Millipore, Bedford, MA, USA) using InCyte software (version 3.1, Merck Millipore). The percentage of annexin V-positive cells was evaluated.

THP-1 cells [3] = assay: Cell cycle analysis by flow cytometry; type: cell-based, human; details: THP-1, APC pretreatment
Description: After treatment with the extract, 7 × 10^4 cells were harvested, washed with PBS, fixed with 200 µL of ice-cold 70% ethanol, and maintained at 4 °C for 4 h before staining. The cell pellet was washed in 1X PBS, resuspended in 200 µL of Guava Cell Cycle reagent (#4500-0220, Millipore), and incubated in the dark at 37 °C for 30 min before analysis with a Guava flow cytometer (Merck Millipore, Bedford, MA, USA) using InCyte software (version 3.1, Merck Millipore).. Centrifugation was performed at 1200 rpm for 5 min at room temperature for each step.

THP-1 cells [4] = assay: Mitochondrial membrane potential (JC-1); type: cell-based, human; details: THP-1, JC-1, 24 h
Description: The Λᴪm was measured using a Guava Mitochondrial Depolarization Kit (4500-0250 Millipore, Darmstadt, Germany). After pretreatment with 1 µM apicidin for 24 h, the cells were exposed to various concentrations of the extract (25, 50, and 100 µg/mL) for 24 h. The cells were collected and suspended in 100 µL of PBS containing JC-1 and 7-AAD after incubation at 37 °C for 15 min. The fluorescence intensity of the cells was analyzed in a Guava Millipore flow cytometer (Merck Millipore, Bedford, MA, USA) using InCyte software (version 3.1, Merck Millipore).

THP-1 cells [5] = assay: MTT cell viability assay, THP-1 cells; type: cell-based, human; details: for IC50: Homo sapiens, MTT, n = 3, read-out: IC50
Description: (§1) Jurkat and THP-1 cell lines were purchased from the American Type Culture Collection (ATCC, Rockville, MD, USA); Jurkat is a human lymphocytic cell line representing acute T-cell leukemia, and THP-1 is a monocytic cell line that represents acute myelogenous leukemia (AML). […] Cat Nos. […] The cells were maintained at 37 °C in a humidified atmosphere with 5% CO2. The culture medium was exchanged with fresh medium every 2-3 days. Peripheral blood mononuclear cells (PBMCs) were isolated from normal human venous blood. Further, 10 milliliters of human blood was mixed with 10 mL of RPMI-1640 containing 50 μL of heparin and gradually poured over 1 mL of HISTOPAQUE®-1119 (Sigma). The plasma was removed by centrifugation at 3000 rpm for 30 min. The peripheral blood mononuclear cell-containing layer was collected with a pipette and diluted in 4 mL of PBS. PBMCs were harvested by centrifugation at 1500 rpm for 10 min at room temperature, resuspended in RPMI-1640 with 10% FBS, and incubated at 37 °C in 5% CO2 humidified air. […] Doxorubicin was used as a reference standard drug (positive control). After treatment, the medium was discarded; 200 μL of RPMI 1640 medium without phenol red containing 0.5 mg/mL MTT (Sigma Chemical Co., Saint Louis, MO, USA; Cat. No. […] The plates were incubated for four hours at 37 °C with 5% CO2 in a humidified atmosphere. The medium was discarded, and 100 μL of DMSO was added to solubilize the formazan crystals. The absorbance was measured with an ELISA microplate reader at 492 nm (ELx800; BioTek Instruments Inc., Winooski, VT, USA). The percentage of viable cells was calculated on the basis of the nontreated control (taken as 100%). […] Three independent assays were performed, each in triplicate. The selectivity index corresponds to the ratio of the IC50 value calculated for the activity of synthesized compounds on a regular cell line (PBMCs) to that of the IC50 calculated for cancer cell lines (Jurkat and THP-1). Values greater than two were optimal for an efficient selectivity index.

[6] = system: Peripheral blood mononuclear cells (PBMCs); assay: MTT cell viability assay, PBMC (normal cells); type: cell-based; details: Homo sapiens, n = 3
Description: Jurkat and THP-1 cell lines were purchased from the American Type Culture Collection (ATCC, Rockville, MD, USA); Jurkat is a human lymphocytic cell line representing acute T-cell leukemia, and THP-1 is a monocytic cell line that represents acute myelogenous leukemia (AML). Jurkat and THP-1 cells were maintained in RPMI 1640 medium (Sigma) supplemented with 10% heat-inactivated fetal bovine serum (FBS) (Gibco Cat No. 16140071, Waltham, MA USA), 200 μg/mL penicillin, 200 μg/mL streptomycin, 400 μg/mL neomycin (GIBCO, Cat No. 15640-055), 5 μg/mL amphotericin, and 1 mM sodium pyruvate (all from Sigma Chemical Co., Saint Louis, MO, USA; Cat Nos. A9528-50 MG, M7522-100ML, and S8636-100ML, respectively). The cells were maintained at 37 °C in a humidified atmosphere with 5% CO2. The culture medium was exchanged with fresh medium every 2–3 days. Peripheral blood mononuclear cells (PBMCs) were isolated from normal human venous blood. Further, 10 milliliters of human blood was mixed with 10 mL of RPMI-1640 containing 50 µL of heparin and gradually poured over 1 mL of HISTOPAQUE®-1119 (Sigma). The plasma was removed by centrifugation at 3000 rpm for 30 min. The peripheral blood mononuclear cell-containing layer was collected with a pipette and diluted in 4 mL of PBS. PBMCs were harvested by centrifugation at 1500 rpm for 10 min at room temperature, resuspended in RPMI-1640 with 10% FBS, and incubated at 37 °C in 5% CO2 humidified air.
Cell viability was determined by measuring the mitochondrial activity of live cells via the metabolism of the tetrazolium substrate 3-(4,5-dimethylthiazol-2-yl)-2,5-diphenyl tetrazolium bromide (MTT) and converting it to purple formazan crystals. Briefly, the cells (2 × 10^4 cells/well) were treated with 25, 50, 100, 200, or 400 μg/mL extract diluted in DMSO (at a final concentration of 0.5%) and incubated for 12, 24, or 48 h. Catalposide and specioside were tested at concentrations of 20, 50, and 100 μg/mL for 12, 24, and 48 h. For apicidin, 0.5, 1, and 2 μM apicidin were tested for 24 and 48 h. Doxorubicin was used as a reference standard drug (positive control). After treatment, the medium was discarded; 200 μL of RPMI 1640 medium without phenol red containing 0.5 mg/mL MTT (Sigma Chemical Co., Saint Louis, MO, USA; Cat. No. M2128-500MG) was then added to each well. The plates were incubated for four hours at 37 °C with 5% CO2 in a humidified atmosphere. The medium was discarded, and 100 μL of DMSO was added to solubilize the formazan crystals. The absorbance was measured with an ELISA microplate reader at 492 nm (ELx800; BioTek Instruments Inc., Winooski, VT, USA). The percentage of viable cells was calculated on the basis of the nontreated control (taken as 100%). The IC50 (concentration causing a 50% reduction in cellular viability) values for all the tested compounds were evaluated in Excel using the nonlinear regression curve method. Three independent assays were performed, each in triplicate.

Jurkat cells = assay: MTT cell viability assay, Jurkat cells; type: cell-based, human; details: for IC50: Homo sapiens, Jurkat, MTT, n = 3; for SI (selectivity index): IC50 PBMC / IC50 Jurkat
Description: as §1

Row | IC50 (THP-1 cells [5]; THP-1, 12 h) [µg/mL] | IC50 (THP-1 cells [5]; THP-1, 24 h) [µg/mL] | IC50 (THP-1 cells [5]; THP-1, 48 h) [µg/mL] | IC50 (Jurkat cells; 12 h) [µg/mL] | IC50 (Jurkat cells; 24 h) [µg/mL] | IC50 (Jurkat cells; 48 h) [µg/mL] | Compound | apoptosis (nuclear morphology) after APC pretreatment (THP-1 cells [1]) | percentage of apoptotic cells, apicidin pretreatment compared with catalposide or specioside treatment (THP-1 cells [2]) | G0/G1 phase arrest with APC pretreatment (THP-1 cells [3]) | depolarization of the mitochondrial membrane (THP-1 cells [4]) | SI (selectivity index) (THP-1 cells [5]; IC50 PBMC / IC50 THP-1, 12 h) | SI (selectivity index) (THP-1 cells [5]; IC50 PBMC / IC50 THP-1, 24 h) | SI (selectivity index) (THP-1 cells [5]; IC50 PBMC / IC50 THP-1, 48 h) | IC50 ([6]; 12 h) [µg/mL] | IC50 ([6]; 24 h) [µg/mL] | IC50 ([6]; 48 h) [µg/mL] | SI (selectivity index) (Jurkat cells; 12 h) | SI (selectivity index) (Jurkat cells; 24 h) | SI (selectivity index) (Jurkat cells; 48 h)
1 |  |  |  |  |  |  | CCC(=O)CCCCC[C@@H]1NC(=O)[C@H]2CCCCN2C(=O)[C@H]([C@@H](C)CC)NC(=O)[C@H](Cc2cn(OC)c3ccccc23)NC1=O [APC, apicidin] | increased apoptosis | increased the percentage of apoptotic cells | increased | decreased mitochondrial membrane polarization |  |  |  |  |  |  |  |  | 
2 | 1.27 ± 0.2 (≈ 2.33 µM) | 0.189 ± 0.1 (≈ 0.348 µM) | 0.005 ± 0.01 (≈ 0.0092 µM) | 0.339 ± 1.2 (≈ 0.624 µM) | 0.258 ± 0.1 (≈ 0.475 µM) | 0.05 (≈ 0.092 µM) | COc1cccc2c1C(=O)c1c(O)c3c(c(O)c1C2=O)C[C@@](O)(C(=O)CO)C[C@@H]3O[C@H]1C[C@H](N)[C@H](O)[C@H](C)O1 [Doxorubicin, reference compound] |  |  |  |  | 1.07 | 1.183 | 3.6 | 1.36 ± 0.15 (≈ 2.51 µM) | 0.224 ± 0.1 (≈ 0.412 µM) | 0.018 ± 0.1 (≈ 0.0331 µM) | 4.02 | 0.86 | 0.36
